The values below come from US20250346642A1, “NEW SPLICE VARIANT ISOFORM OF VEGF” (CENTRE NATIONAL DE LA RECHERCHE SCIENTIFIQUE (CNRS), priority 2020, published 2025).

Where two headings read alike, the source gives them in different places.

Series [1] deals with metastatic ccRCC. The series can be described thus: PFS and OS of metastatic (M1) ccRCC patients treated by sunitinib, grouped by plasma VEGF222/NF. In kind it is in vivo, human. The protocol: Informed consent was obtained from all individual participants included in the study. All patients gave written consent for the use of tumor and blood samples for research. This study was conducted in accordance with the Declaration of Helsinki. Primary tumor samples of 93 non-metastatic (M0) ccRCC patients were obtained from the Rennes and Bordeaux University Hospitals (UroCCR group, NCT03293563). For metastatic patients, the population of the study included 47 ccRCC patients from the prospective SUVEGIL (NCT00943839) and TORAVA (NCT00619268) trials and from a retrospective cohort from Pavia (Italy).
Informed consent was obtained from all individual participants included in the study. All patients gave written consent for the use of tumor and blood samples for research. This study was conducted in accordance with the Declaration of Helsinki. Primary tumor samples of 93 non-metastatic (M0) ccRCC patients were obtained from the Rennes and Bordeaux University Hospitals (UroCCR group, NCT03293563). For metastatic patients, the population of the study included 47 ccRCC patients from the prospective SUVEGIL (NCT00943839) and TORAVA (NCT00619268) trials and from a retrospective cohort from Pavia (Italy). Metastatic patients received oral sunitinib (50 mg per day) once a day for 4 weeks (on days 1 to 28), followed by 2 weeks of treatment interruption. Sunitinib was continued in the absence of disease progression or unacceptable toxicity. Blood samples were collected before the beginning of the treatment (TO). Blood samples were centrifuged (10 000 g for 10 min) and the plasmas were collected and conserved at −80° C. Plasmatic levels of VEGF and VEGF222/NF were determined by ELISA as described in the ELISA method details section. PFS and OS were calculated from patient subgroups with VEGFA or VEGF222/NF plasmatic levels that were less or greater than the third quartile value.
Statistical analysis was carried out using GraphPad Prism 8. Data were expressed as mean±SEM and were compared using an unpaired Mann-Whitney test for intergroup analysis. For patients: The Student's t-test was used to compare continuous variables and chi-square test, or Fisher's exact test (when the conditions for use of the χ2-test were not fulfilled), were used for categorical variables. DFS was defined as the time from surgery to the appearance of metastasis. PFS was defined as the time between surgery and progression, or death from any cause, censoring live patients and progression free at the last follow-up. OS was defined as the time between surgery and the date of death from any cause, censoring those alive at the last follow-up. The Kaplan-Meier method was used to produce survival curves and analyses of censored data were performed using Cox models. Significance was defined as P<0.05.
The detrimental effects of VEGF222/NF in immunodeficient mice and zebrafish models prompted us to analyze the prognostic impact of its plasmatic levels in comparison to plasmatic VEGF level on a cohort of 47 metastatic (M1) ccRCC patients treated by sunitinib. The third quartile was used as the cut-off to determine patients' groups, respectively 4500 […] for VEGF and VEGF222/NF. […] However, patients with high plasmatic levels of both VEGF222/NF and VEGF had the shortest PFS (FIG. 14). […] Whereas VEGF was not associated with a significant effect on OS, high expression of VEGF222/NF WAS synonymous of a shorter overall survival (OS) in M1 patients (FIGS. 13C,D).

Series [2] deals with ACHN cells. As to the kind of experiment: RT-qPCR of VEGF and VEGF222/NF in ACHN cells transduced with shRNA. The series is classed as cell-based. From the text: (§1) For these constructs, the C-terminal V5-tag was not in frame. To generate lentiviral shRNA plasmids, pLKO.1-TRC cloning vector, a kind gift from David Roots, has been used. pLKO.1-TRC contains a 1.9 kb stuffer released by Agel and EcoRI digestion. shRNA oligos were annealed and ligated into the Agel and EcoRI sites in place of the stuffer. The following shRNA sequences were used: shScramble: 5′-[…]-3′ (SEQ ID NO: 26); shVEGF #1: 5′-[…]-3′ (SEQ ID NO: 27) shVEGF #2: 5′-[…]-3′ (SEQ ID NO: 28); shVEGFNF #1: 5′-[…]-3′ (SEQ ID NO: 29); shVEGFNF #2: 5′-[…]-3′(SEQ ID NO: 30); shNRP1: 5′-[…]-3′(SE ID NO: 31); shNRP2: 5′-[…]-3 (SEQ ID NO: 32)′. All plasmids were verified by Sanger sequencing (Eurofins Genomics).
(§2) Lentivirus were produced by triple transfection of HEK-293T cells with a lentiviral transfer vector (pLenti6.3 for overexpression experiments and pLKO.1 for shRNA experiments), and the packaging plasmids psPAX2 and pMD2.G at a 0.3:0.3:0.1 ratio. Transfection was performed using JetPEI® reagent as recommended by the manufacturer Polyplus transfection. The viral supernatant was collected 48 hours following transfection, filtered through a 0.22 μm filter, and added to target cells.
(§3) RT-PCR and RT-qPCR analyses were carried out on human tissue mRNA (BIOCHAIN®) and on cancer cell lines. mRNAs were prepared with a Nucleospin RNA kit (Macherey-Nagel), and cDNA synthesis was performed with a Maxima First Strand CDNA Synthesis Kit for RT-qPCR, with dsDNase (Fischer scientific), according to the manufacturers' instructions.
(§4) PCR analysis was performed on Biometra thermal cycler with PrimeSTAR GXL DNA polymerase (Takara Bio). Quantitative PCR analysis was performed on Applied Biosystems StepOnePlus™ System with TB Green® premix Ex Taq™ (Tli RNase H Plus) (Takara Bio) reagents. All samples were assayed in triplicate. Relative expression levels were determined with the dCt method and normalized to the 36B4 reference gene.

Series [3] deals with 786-O cells. The series can be described thus: RT-qPCR of VEGF and VEGF222/NF in 786-O cells transduced with shRNA. The series is classed as cell-based.
Source text: as §1, §2, §3, §4
Background: Real-time PCR tracks product formation cycle by cycle.

In series [4] the target is T1, VEGFR3 (UniProt P35916 25-776, limits assumed).
T1 sequence (looked up): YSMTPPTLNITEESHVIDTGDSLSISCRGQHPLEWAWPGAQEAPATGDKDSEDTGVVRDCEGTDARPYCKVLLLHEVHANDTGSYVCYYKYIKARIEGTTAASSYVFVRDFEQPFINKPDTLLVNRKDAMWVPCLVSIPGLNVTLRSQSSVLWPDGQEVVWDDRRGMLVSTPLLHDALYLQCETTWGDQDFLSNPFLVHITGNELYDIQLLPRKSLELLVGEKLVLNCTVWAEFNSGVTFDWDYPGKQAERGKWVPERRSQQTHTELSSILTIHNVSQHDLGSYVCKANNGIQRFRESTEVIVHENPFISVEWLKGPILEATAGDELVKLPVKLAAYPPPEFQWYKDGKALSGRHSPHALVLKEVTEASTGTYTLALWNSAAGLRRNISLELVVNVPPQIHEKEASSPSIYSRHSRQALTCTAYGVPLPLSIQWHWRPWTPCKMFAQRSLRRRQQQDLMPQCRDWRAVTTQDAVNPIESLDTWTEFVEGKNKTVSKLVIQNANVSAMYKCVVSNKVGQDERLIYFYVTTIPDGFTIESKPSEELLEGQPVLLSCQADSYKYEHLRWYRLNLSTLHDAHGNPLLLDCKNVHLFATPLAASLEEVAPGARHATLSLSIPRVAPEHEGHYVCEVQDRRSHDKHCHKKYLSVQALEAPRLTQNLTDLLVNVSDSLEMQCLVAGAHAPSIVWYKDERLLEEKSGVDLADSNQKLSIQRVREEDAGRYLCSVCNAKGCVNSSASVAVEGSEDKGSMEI
As to the kind of experiment: saturation binding experiment.

The target in series [5] is T2, VEGFR2 (UniProt P35968 20-764, limits assumed).
T2 construct: also called VEGFR2/KDR
T2 sequence (P35968 20-764 limits assumed): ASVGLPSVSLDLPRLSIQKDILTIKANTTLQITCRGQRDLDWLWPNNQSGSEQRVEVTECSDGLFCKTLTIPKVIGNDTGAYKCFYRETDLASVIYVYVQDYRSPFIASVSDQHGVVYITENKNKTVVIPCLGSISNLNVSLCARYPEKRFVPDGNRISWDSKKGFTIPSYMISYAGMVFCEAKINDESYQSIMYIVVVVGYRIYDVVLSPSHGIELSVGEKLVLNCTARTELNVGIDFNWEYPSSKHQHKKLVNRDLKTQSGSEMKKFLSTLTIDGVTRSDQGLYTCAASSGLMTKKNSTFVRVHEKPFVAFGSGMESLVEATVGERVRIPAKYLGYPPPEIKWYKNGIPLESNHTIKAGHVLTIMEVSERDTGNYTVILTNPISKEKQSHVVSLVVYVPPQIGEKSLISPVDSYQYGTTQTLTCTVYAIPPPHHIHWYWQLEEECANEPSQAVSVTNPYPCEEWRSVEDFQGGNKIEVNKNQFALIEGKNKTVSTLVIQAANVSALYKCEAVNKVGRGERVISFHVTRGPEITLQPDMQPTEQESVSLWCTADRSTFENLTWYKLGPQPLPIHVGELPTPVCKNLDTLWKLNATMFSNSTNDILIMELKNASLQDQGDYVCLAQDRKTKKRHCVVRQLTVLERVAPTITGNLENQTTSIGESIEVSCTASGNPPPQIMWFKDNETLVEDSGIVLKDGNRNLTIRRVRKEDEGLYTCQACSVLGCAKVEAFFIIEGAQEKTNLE
The series can be described thus: saturation binding experiment.

Series [6] deals with T3, VEGFR1 (UniProt P17948 27-756, limits assumed).
T3 construct: also called VEGFR1/Flt1
T3 sequence (P17948 27-756 limits assumed): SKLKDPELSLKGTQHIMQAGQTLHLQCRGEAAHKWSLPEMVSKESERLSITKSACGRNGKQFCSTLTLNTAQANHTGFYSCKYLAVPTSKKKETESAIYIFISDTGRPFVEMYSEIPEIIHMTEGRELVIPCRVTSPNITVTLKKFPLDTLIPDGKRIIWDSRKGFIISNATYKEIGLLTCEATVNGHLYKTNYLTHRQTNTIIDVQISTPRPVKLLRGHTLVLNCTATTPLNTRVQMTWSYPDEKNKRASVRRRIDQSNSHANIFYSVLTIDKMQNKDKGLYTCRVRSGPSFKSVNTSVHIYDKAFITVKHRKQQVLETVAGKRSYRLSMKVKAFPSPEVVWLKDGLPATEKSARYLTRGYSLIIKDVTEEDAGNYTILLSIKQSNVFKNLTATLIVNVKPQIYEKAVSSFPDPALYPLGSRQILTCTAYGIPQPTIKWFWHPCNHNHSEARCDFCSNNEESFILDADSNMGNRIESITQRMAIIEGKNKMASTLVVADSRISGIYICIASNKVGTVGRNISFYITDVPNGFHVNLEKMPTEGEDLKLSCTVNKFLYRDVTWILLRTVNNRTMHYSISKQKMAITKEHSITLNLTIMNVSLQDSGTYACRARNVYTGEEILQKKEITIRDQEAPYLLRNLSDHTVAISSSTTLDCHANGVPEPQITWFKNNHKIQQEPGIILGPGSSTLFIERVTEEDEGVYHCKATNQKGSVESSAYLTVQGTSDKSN
The series can be described thus: saturation binding experiment.

Setting [7] is: ACHN cells, pLKO.1 lentiviral transduction.
The mark [8] stands for this setting: 786-O cells, pLKO.1 lentiviral transduction.

Turning to `CCN(CC)CCNC(=O)c1c(C)[nH]c(/C=C2\C(=O)Nc3ccc(F)cc32)c1C` [sunitinib], the results for the Death % in series [1] (High VEGF222/NF), in series [1] (Low VEGF222/NF) and in series [1] (Total) were 83%, 68% and 75%, respectively. Moreover, the results for the “OS (months)” value in series [1] (High VEGF222/NF), in series [1] (Low VEGF222/NF) and in series [1] (Total) were 13 months, 37 months and 33 months, respectively. Also, the “PFS (months)” value in series [1] (High VEGF222/NF) came out at 5 months; in series [1] (Low VEGF222/NF), 15 months; in series [1] (Total, 47 M1 ccRCC patients) it was 12 months. Moreover, the progression % is 83% in series [1] (High VEGF222/NF), 76% in series [1] (Low VEGF222/NF) and 82% in series [1] (Total).
Turning to “5′-CATITCCCTCAGATGTGACAA-3′ (CATTTCCCTCAGATGTGACAA; chemistry not given here) [shRNA NF #2]”, the “expression of the respective target (VEGF or VEGF222/NF)” value (“expression of the respective target” for short) in series [2] and in series [3] was “downregulated the expression of their respective targets” throughout.
As for “5′-AGGGCAGAATCATCACGAAGT-3′ (expressed or natural sequence) [shRNA #2]”, the “expression of the respective target” value in series [2] (setting [7]) and in series [3] (setting [8]) was “downregulated the expression of their respective targets” each time.
Regarding “5′-GCCTTTGTITTCCATTTCC-3′ (GCCTTTGTTTTCCATTTCC; chemistry not given here) [shRNA NF #1]”, the “expression of the respective target” value in series [2] and in series [3] was “downregulated the expression of their respective targets” throughout.
Regarding “5′-GCGCAAGAAATCCCGGTATAA-3′ (expressed or natural sequence) [shRNA #1]”, the “expression of the respective target” value in series [2] (setting [7]) and in series [3] (setting [8]) was “downregulated the expression of their respective targets” throughout.

B1: recombinant VEGF222/NF protein produced in HEK293 cells by ProteoGenix (ligand)
chain: GSHHHHHHSGLEVLFQGPAPMAEGGGQNHHEVVKFMDVYQRSYCHPIETLVDIFQEYPDEIEYIFKPSCVPLMRCGGCCNDEGLECVPTEESNITMQIMRIKPHQGQHIGEMSFLQHNKCECRPKKDRARQENPCGPCSERRKHLFVQDPQTCKCSCKNTDSRCKARQLELNERTCSLCFPFPSDVTSRGGEPGRRKEPPSGFREPDLSPGKTDTERSIQKPRCRHHTITIDRTVLNPET
notes: also called VEGF222 New Form; rVEGF222/NF
Turning to B1, the Kd in series [4] came out at 10.4 nM; in series [5] it was 0.73 nM; in series [6], 1.12 nM.

In general, Kd refers to the constant that tells how readily two partners part at equilibrium. A high value points to weaker binding.
